Columns and labels:
Type in all cases: cell-based, human
SCaBER = assay: MTT cell survival / IC50, SCaBER squamous carcinoma cells; conditions: for Cell survival (%): Table S3, ng/ml: Pi 40, Pa 160, EH 250, Ci 1500, Mi 200, 1=Ci/Mi, 2=EH/Ci/Mi, 3=Pa/Ci/Mi, 4=Pi/Ci/Mi; for Single drug 4X Cell Survival (%): ng/ml: EH 1000, Ci 6000, Mi 800, Pi 160, Pa 640, Ge 20, EH/Ci/Mi regimen
Procedure: (§1) The clinical grade of the chemotherapeutics (NCI Dictionary of Cancer Terms) was provided by the First Affiliated Hospital of Harbin Medical University: Pirarubicin (Pi, Wanle, Shenzhen), Paclitaxel (Pa, Taiji, Sichuan), Adriamycin (Ad, Pfizer, Jiangsu), Epirubicin Hydrochloride (EH, Haizheng, Zhejiang), Hydroxycamptothecin (Hy, Lishizhen, Hubei), Cisplatin (Ci, Haosen, Jiangsu), Gemcitabine (Ge, Haosen, Jiangsu) and Mitomycin (Mi, Haizheng, Zhejiang). The drug induced cell death was determined by a thiazolyl […] (MTT, 490 nm reading) based cell proliferation assay in the cultured cells following treatment by various concentrations of drugs for 72 hours. The relative chemoresistance to each drug of all cell lines was calculated with the lowest IC50 as a reference. The overall chemoresistance of each cell line was described as “chemoresistance index”, the numerator of the total relative IC50 to all the drugs over the number of drugs to rank the overall resistance state of each cell line to the six chemotherapeutics collectively.
(§2) The relative IC50 (fold) of each drug of all nine cell lines was normalized to the lowest IC50 in the most sensitive cell line (FIG. 2G), to describe the single drug resistance of cell lines. The overall chemoresistance of each cell line, a “chemoresistance index” (the numerator of the total relative IC50 over the number of drugs) (FIG. 2G) were calculated to rank the overall resistance state of each cell line to this six chemotherapeutics.

[1] = tested on: bladder cancer cell lines; assay: Average cumulative cell survival (ACS) over the panel of cell lines tested; conditions: for ACS (%): eight cell lines, Table S3, ng/ml: Pi 40, Pa 160, EH 250, Ci 1500, Mi 200, 1=Ci/Mi, 2=EH/Ci/Mi, 3=Pa/Ci/Mi, 4=Pi/Ci/Mi; for ACS: four-fold dosed component drugs alone: Ci 6000 ng/mL, Mi 800 ng/mL, EH 1000 ng/mL (Table S4); for ACS (%) for cancer cells: seven cancer cell lines, ng/ml: EH 1000, Ci 6000, Mi 800, Pi 160, Pa 640, Ge 20, EH/Ci/Mi regimen
Procedure: as §1
The “Differential Evolution” algorithm guided experimental optimization (DE) consisted of three iterative operations: generating drug combinations of experimental testing, acquiring the efficacy of the generated drug combinations with biological assays and recalculating further improved drug combinations using a feedback search algorithm. This example first tested twenty drug combinations at randomized doses. These drug combinations were generated from a random integer matrix generator, coded in MATLAB™ language. These twenty drug combinations were then experimentally tested for cancer cell cytotoxicity. The experimental data were then subjected to calculation with a DE algorithm for new drug combinations based on three major mathematical calculations: “Mutation”, “Crossover” and “Selection”. The equations for each step can be found in the main test. The equations for each step are coded in MATLAB™ language.
(§3) Twenty six-drug combinations at the indicated doses were initially generated through a random number generator (using MATLAB MathWorks©, Natick, Mass., U.S.) (The upper half of Table 1). The cell survival (% over the not drug control) of treated cells was determined and then used for a calculation of the average cumulative cell survival (%, ACS: the sum of cell survival (%) per combination divided by the number of cell lines tested). ACS<30% was used to separate the effective from the not-effective combinations. Nine of the twenty combinations tested in the 1st round of iteration fell into this category (the lower half of Table 1).

UM-UC-3 = assay: MTT cell survival / IC50, UM-UC-3 cells; conditions: for Cell survival (%) / Single drug 4X Cell Survival (%): UM-UC-3; for Cell survival (%): Table S3, ng/ml: Pi 40, Pa 160, EH 250, Ci 1500, Mi 200, 1=Ci/Mi, 2=EH/Ci/Mi, 3=Pa/Ci/Mi, 4=Pi/Ci/Mi; for Single drug 4X Cell Survival (%): ng/ml: EH 1000, Ci 6000, Mi 800, Pi 160, Pa 640, Ge 20, EH/Ci/Mi regimen; for ACS (%): UM-UC-3 cells, Table 4 (B); for Cell survival 72 hours: Um-Uc-3 cells, Table 4 (A)
Procedure: as §1, §2
as §3, with “combinations.” for “combinations. Nine of the twenty combinations tested in the 1st round of iteration fell into this category (the lower half of Table 1).”

Hypoxia pathway = assay: Cignal Finder dual-luciferase pathway reporter, Hypoxia; parameters: key to Relative activity, Hypoxia reporter: firefly/renilla ratio, background (negative control) subtracted; conditions: for Relative activity, Hypoxia reporter: luc/Renluc relative to negative control reporter, single drug at 4 folds vs EH/Ci/Mi combination
Procedure: The pathway analysis was performed with Qiagen's Cignal Finder Pathway Reporter Array systems according to the manufacturer's instructions. The pathway-focused dual-luciferase reporter construct was a mixture of an inducible transcription factor responsive firefly luciferase reporter and constitutively expressing renilla construct. Transcriptional response element (TRE) sequence response elements to each specific transcriptional factor triggered by the different signaling pathways are positioned before the TATA box of firefly luciferase reporter gene. The extent of activity of the reporter reflects the level of activity of the particular signaling pathway. CMV controlled renilla expression vector is co-transfected into the cell as an internal control. Non-inducible reporter construct that lacks the transcriptional factor binding sequence and could not be induced by any transcription factors is used as a negative control. Cells transfected with CMV directed firefly luciferase reporter gene serve as a positive control. Briefly, cells seeded in 6-well plates were transfected with Cignal finder pathway arrays according to the manufacturer's instructions (Qiagen). Then cells were seeded onto 96-well plates. Ci (6000 ng/mL), Mi (800 ng/mL), or EH (1000 ng/mL) and Ci/Mi/EH combination (Ci, 1500 ng/mL, Mi, 800 ng/mL and EH, 1000 ng/m L) were then added to the cells 24 h post-transfection. After 6 h of incubation with the different drugs at 37° C., cells were lysed and a dual luciferase assay (for firefly and renilla luciferase) was performed using a PromegaGloMax 20/20 illuminometer. The firefly luciferase activities were normalized over the renilla luciferase activities after background activity determined by luciferase activities of negative controls was subtracted. A triple test of cell survival under these drug doses was also performed by MTT assay following 18 h incubation at 37° C. […]

5637 = assay: MTT cell survival / IC50, 5637 cells; conditions: for Cell survival (%) / Single drug 4X Cell Survival (%): 5637; for Cell survival (%): Table S3, ng/ml: Pi 40, Pa 160, EH 250, Ci 1500, Mi 200, 1=Ci/Mi, 2=EH/Ci/Mi, 3=Pa/Ci/Mi, 4=Pi/Ci/Mi; for Single drug 4X Cell Survival (%): ng/ml: EH 1000, Ci 6000, Mi 800, Pi 160, Pa 640, Ge 20, EH/Ci/Mi regimen; for Cell survival 72 hours / ACS (%): 5637 cells; for Cell survival 72 hours: Table 4 (A); for ACS (%): Table 4 (B)
Procedure: as §1, §2
as §3, with “combinations.” for “combinations. Nine of the twenty combinations tested in the 1st round of iteration fell into this category (the lower half of Table 1).”

J-82 = assay: MTT cell survival / IC50, J-82 cells; conditions: J82; Table S3; ng/ml: Pi 40, Pa 160, EH 250, Ci 1500, Mi 200; 1=Ci/Mi, 2=EH/Ci/Mi, 3=Pa/Ci/Mi, 4=Pi/Ci/Mi
Procedure: as §1, §2
as §3, with “combinations.” for “combinations. Nine of the twenty combinations tested in the 1st round of iteration fell into this category (the lower half of Table 1).”

N.N.[Cl][Pt][Cl] [Ci, (SP-4-2)-diamminedichloroplatinum(II)]
Cell survival (%) (SCaBER): 22.05% | Single drug 4X Cell Survival (%) (SCaBER): 5.58% | ACS (%) [1]: 22.9% | ACS [1]: 16.60% | ACS (%) for cancer cells [1]: 9.11% | Cell survival (%) (UM-UC-3): 14.71% | Single drug 4X Cell Survival (%) (UM-UC-3): 9.33% | ACS (%) (UM-UC-3): 9.33% | Cell survival 72 hours (UM-UC-3): 9.33% | relative drug trigged pathway activity over the no-drug level, Hypoxia (Hypoxia pathway; 5637 cells): 1.64 fold | Relative activity, Hypoxia reporter (Hypoxia pathway; 5637 cells): 37.36 | digitalized pathway activity, Hypoxia (Hypoxia pathway; Biu87 cells): 0 (null (0) if neither of the above holds) | relative drug trigged pathway activity over the no-drug level, Hypoxia (Hypoxia pathway; Biu87 cells): 1.32 fold | Relative activity, Hypoxia reporter (Hypoxia pathway; Biu87 cells): 10.01 | relative drug trigged pathway activity over the no-drug level, Hypoxia (Hypoxia pathway; H-bc cells): 0.39 fold | Relative activity, Hypoxia reporter (Hypoxia pathway; H-bc cells): 49.11 | digitalized pathway activity, Hypoxia (Hypoxia pathway; SV-HUC-1 cells): 0 (null (0) if neither of the above holds) | relative drug trigged pathway activity over the no-drug level, Hypoxia (Hypoxia pathway; SV-HUC-1 cells): 1.19 fold | Relative activity, Hypoxia reporter (Hypoxia pathway; SV-HUC-1 cells): 30.20 | digitalized pathway activity, Hypoxia (Hypoxia pathway; UM-UC-3 cells): 0 (null (0) if neither of the above holds) | Relative activity, Hypoxia reporter (Hypoxia pathway; UM-UC-3 cells): 41.68 | relative drug trigged pathway activity over the no-drug level, Hypoxia (Hypoxia pathway; Um-Uc-3 cells): 0.66 fold | Cell survival (%) 5637: 20.32% | Single drug 4X Cell Survival (%) 5637: 1.49% | Cell survival 72 hours 5637: 2.23% | ACS (%) 5637: 2.23% | Cell survival (%) (J-82): 15.42%

COc1cccc2c1C(=O)c1c(O)c3c(c(O)c1C2=O)C[C@@](O)(C(=O)CO)C[C@@H]3[C@@H]1C[C@H](N)[C@@H](O)[C@H](C)O1 [EH, (8R,10S)-10-((2S,4S,5R,6S)-4-amino-5-hydroxy-6-methyltetrahydro-2H-pyran-2-yl)-6,8,11-trihydroxy-8-(2-hydroxyacetyl)-1-methoxy-7,8,9,10-tetrahydrotetracene-5,12-dione]
Cell survival (%) (SCaBER): 38.31% | Single drug 4X Cell Survival (%) (SCaBER): 6.67% | ACS (%) [1]: 39.75% | ACS [1]: 9.11% | ACS (%) for cancer cells [1]: 16.60% | Cell survival (%) (UM-UC-3): 43.54% | Single drug 4X Cell Survival (%) (UM-UC-3): 25.19% | ACS (%) (UM-UC-3): 25.19% | Cell survival 72 hours (UM-UC-3): 25.19% | relative drug trigged pathway activity over the no-drug level, Hypoxia (Hypoxia pathway; 5637 cells): 2.27 fold | Relative activity, Hypoxia reporter (Hypoxia pathway; 5637 cells): 51.46 | relative drug trigged pathway activity over the no-drug level, Hypoxia (Hypoxia pathway; Biu87 cells): 2.26 fold | Relative activity, Hypoxia reporter (Hypoxia pathway; Biu87 cells): 17.13 | relative drug trigged pathway activity over the no-drug level, Hypoxia (Hypoxia pathway; H-bc cells): 1.72 fold | Relative activity, Hypoxia reporter (Hypoxia pathway; H-bc cells): 57.60 | relative drug trigged pathway activity over the no-drug level, Hypoxia (Hypoxia pathway; SV-HUC-1 cells): 1.74 fold | Relative activity, Hypoxia reporter (Hypoxia pathway; SV-HUC-1 cells): 44.00 | digitalized pathway activity, Hypoxia (Hypoxia pathway; UM-UC-3 cells): 0 (null (0) if neither of the above holds) | Relative activity, Hypoxia reporter (Hypoxia pathway; UM-UC-3 cells): 73.93 | relative drug trigged pathway activity over the no-drug level, Hypoxia (Hypoxia pathway; Um-Uc-3 cells): 1.18 fold | Cell survival (%) 5637: 14.75% | Single drug 4X Cell Survival (%) 5637: 2.23% | Cell survival 72 hours 5637: 2.23% | ACS (%) 5637: 2.23% | Cell survival (%) (J-82): 45.03%

COC12C(COC(N)=O)C3=C(C(=O)C(C)=C(N)C3=O)N1CC1NC12 (stereo not drawn) [Mi, [6-Amino-8a-methoxy-5-methyl-4,7-dioxo-1,1a,2,4,7,8,8a,8b-octahydroazireno [2′,3′:3,4]pyrrolo[1,2-a]indol-8-yl]methyl carbamate]
Cell survival (%) (SCaBER): 56.83% | Single drug 4X Cell Survival (%) (SCaBER): 41.97% | ACS (%) [1]: 56.85% | ACS [1]: 40.49% | ACS (%) for cancer cells [1]: 40.49% | Cell survival (%) (UM-UC-3): 66.2% | Single drug 4X Cell Survival (%) (UM-UC-3): 54.74% | ACS (%) (UM-UC-3): 54.71% | Cell survival 72 hours (UM-UC-3): 54.71% | relative drug trigged pathway activity over the no-drug level, Hypoxia (Hypoxia pathway; 5637 cells): 3.31 fold | Relative activity, Hypoxia reporter (Hypoxia pathway; 5637 cells): 75.18 | relative drug trigged pathway activity over the no-drug level, Hypoxia (Hypoxia pathway; Biu87 cells): 3.56 fold | Relative activity, Hypoxia reporter (Hypoxia pathway; Biu87 cells): 26.99 | digitalized pathway activity, Hypoxia (Hypoxia pathway; H-bc cells): 0 (null (0) if neither of the above holds) | relative drug trigged pathway activity over the no-drug level, Hypoxia (Hypoxia pathway; H-bc cells): 0.58 fold | Relative activity, Hypoxia reporter (Hypoxia pathway; H-bc cells): 20.08 | relative drug trigged pathway activity over the no-drug level, Hypoxia (Hypoxia pathway; SV-HUC-1 cells): 2.08 fold | Relative activity, Hypoxia reporter (Hypoxia pathway; SV-HUC-1 cells): 52.50 | digitalized pathway activity, Hypoxia (Hypoxia pathway; UM-UC-3 cells): 0 (null (0) if neither of the above holds) | Relative activity, Hypoxia reporter (Hypoxia pathway; UM-UC-3 cells): 45.95 | relative drug trigged pathway activity over the no-drug level, Hypoxia (Hypoxia pathway; Um-Uc-3 cells): 0.73 fold | Cell survival (%) 5637: 53.16% | Single drug 4X Cell Survival (%) 5637: 35.46% | Cell survival 72 hours 5637: 35.46% | ACS (%) 5637: 35.46% | Cell survival (%) (J-82): 48.38%

— patent US10238688B2, “Combination therapies for bladder cancer” (GENEDIA BIOTECH CO. LTD., priority 2015, dated 2019)
